Measurements as given in patent US12545685B2 (Daiichi Sankyo Company, Limited, priority 2011, dated 2026).

Target: T1, Mdm2/p53 binding (GST-Mdm2 / His-p53) (Homo sapiens, UniProt Q00987, L33E)
T1 construct: Mdm2 partial protein having Mdm2 amino acids at positions 25 to 108
Test: Mdm2/p53 binding assay (HTRF, His-p53 and GST-Mdm2)
Conditions: His-p53 (aa 1-132) and GST-Mdm2 (aa 25-108, L33E) 6.25 nM each; 25°C, 1 hour; values given as ranges
Procedure, shortened: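 Binding was detected by HTRF (ex 320 nm, em 620/665 nm) after 1 h at 25 °C, using Eu-cryptate anti-GST and XL665 anti-His antibodies. The protein pair was GST-Mdm2 (residues 25–108, L33E) with His-p53 (residues 1–132), each 6.25 nM in the protein dilution. T/C used no-compound control and no-p53 background, and IC50 came from sigmoid fitting.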

T1 sequence (Q00987 25-108 L33E): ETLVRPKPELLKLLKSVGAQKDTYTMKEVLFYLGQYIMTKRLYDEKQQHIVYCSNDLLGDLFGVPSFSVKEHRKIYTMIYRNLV

Row | Structure (SMILES) | IC50 [nM]
1 | O=C(N[C@@H]1CC[C@@H](CO)OC1)[C@@H]1NC2(CC(CF)(CF)C2)[C@@]2(C(=O)Nc3nc(Cl)ccc32)[C@H]1c1cccc(Cl)c1F [Example 84, (3′R, 4′S,5′R)-6″-chloro-4′-(3-chloro-2-fluorophenyl)-3,3-bis(fluoromethyl)-N-[(3R,6S)-6-(hydroxymethyl)tetrahydro-2H-pyran-3-yl]-2″-oxo-1″,2″-dihydrodispiro[cyclobutane-1,2′-pyrrolidine-3′,3″-pyrrolo[2,3-b]pyridine]-5′-carboxamide] | 50 to 100
2 | CC1(C)CCC2(CC1)N[C@@H](C(=O)N[C@H]1CC[C@](O)(CS(C)(=O)=O)CC1)[C@H](c1ccnc(Cl)c1F)[C@]21C(=O)Nc2cc(Cl)ccc21 [Example 87, (3′R, 4′S,5′R)-6″-chloro-4′-(2-chloro-3-fluoropyridin-4-yl)-N-{cis-4-hydroxy-4-[(methylsulfonyl)methyl]cyclohexyl}-4,4-dimethyl-2″-oxo-1″,2′-dihydrodispiro[cyclohexane-1,2′-pyrrolidine-3′,3″-indole]-5′-carboxamide] | 1 to 50
3 | O=C(N[C@@H]1CC[C@@H](CO)OC1)[C@@H]1NC2(CC(CF)(CF)C2)[C@@]2(C(=O)Nc3cc(Cl)ccc32)[C@H]1c1ccnc(Cl)c1F [Example 91, (3′R, 4′S,5′R)-6″-chloro-4′-(2-chloro-3-fluoropyridin-4-yl)-3,3-bis(fluoromethyl)-N-[(3R,6S)-6-(hydroxymethyl)tetrahydro-2H-pyran-3-yl]-2″-oxo-1″,2″-dihydrodispiro[cyclobutane-1,2′-pyrrolidine-3′,3″-indole]-5′-carboxamide] | 50 to 100
4 | CC1(C)CCC2(CC1)N[C@@H](C(=O)N[C@@H]1CC[C@@H](CO)OC1)[C@H](c1cncc(Cl)c1)[C@]21C(=O)Nc2cc(Cl)ccc21 [Example 92, (3′R, 4′R, 5′R)-6″-chloro-4′-(5-chloropyridin-3-yl)-N-[(3R,6S)-6-(hydroxymethyl)tetrahydro-2H-pyran-3-yl]-4,4-dimethyl-2″-oxo-1″,2″-dihydrodispiro[cyclohexane-1,2′-pyrrolidine-3′,3″-indole]-5′-carboxamide] | 1 to 50
5 | O=C(N[C@H]1CC[C@H](c2nnco2)CC1)[C@@H]1NC2(CC(CF)(CF)C2)[C@@]2(C(=O)Nc3cc(Cl)ccc32)[C@H]1c1ccnc(Cl)c1F [Example 95, (3′R, 4′S,5′R)-6″-chloro-4′-(2-chloro-3-fluoropyridin-4-yl)-3,3-bis(fluoromethyl)-N-[trans-4-(1,3,4-oxadiazol-2-yl)cyclohexyl]-2″-oxo-1″,2′-dihydrodispiro[cyclobutane-1,2′-pyrrolidine-3′,3″-indole]-5′-carboxamide] | 50 to 100
6 | CC1(C)CCC2(CC1)N[C@@H](C(=O)N[C@@H]1CC[C@@H](CS(C)(=O)=O)OC1)[C@H](c1ccnc(Cl)c1F)[C@]21C(=O)Nc2cc(Cl)ccc21 [Example 98, (3′R, 4′S,5′R)-6″-chloro-4′-(2-chloro-3-fluoropyridin-4-yl)-4,4-dimethyl-N-{(3R,6S)-6-[(methylsulfonyl)methyl]tetrahydro-2H-pyran-3-yl}-2″-oxo-1″,2″-dihydrodispiro[cyclohexane-1,2′-pyrrolidine-3′,3″-indole]-5′-carboxamide] | 50 to 100
7 | CNC(=O)[C@@H]1CC[C@@H](NC(=O)[C@@H]2NC3(CCC(C)(C)CC3)[C@@]3(C(=O)Nc4nc(Cl)ccc43)[C@H]2c2ccnc(Cl)c2F)CO1 [Example 101, (3′R, 4′S,5′R)-6″-chloro-4′-(2-chloro-3-fluoropyridin-4-yl)-4,4-dimethyl-N-[(3R,6S)-6-(methylcarbamoyl)tetrahydro-2H-pyran-3-yl]-2″-oxo-1″,2″-dihydrodispiro[cyclohexane-1,2′-pyrrolidine-3′,3″-pyrrolo[2,3-b]pyridine]-5′-carboxamide] | 1 to 50
8 | CC1(C)CCC2(CC1)N[C@@H](C(=O)N[C@@H]1CC[C@@H](C(=O)NC3CC3)OC1)[C@H](c1ccnc(Cl)c1F)[C@]21C(=O)Nc2nc(Cl)ccc21 [Example 102, (3′R, 4′S,5′R)-6″-chloro-4′-(2-chloro-3-fluoropyridin-4-yl)-N-[(3R,6S)-6-(cyclopropylcarbamoyl)tetrahydro-2H-pyran-3-yl]-4,4-dimethyl-2″-oxo-1″,2″-dihydrodispiro[cyclohexane-1,2′-pyrrolidine-3′,3″-pyrrolo[2,3-b]pyridine]-5′-carboxamide] | 1 to 50
9 | CC1(C)CCC2(CC1)N[C@@H](C(=O)N[C@@H]1CC[C@@H](C(=O)NCCO)OC1)[C@H](c1ccnc(Cl)c1F)[C@]21C(=O)Nc2cc(Cl)ccc21 [Example 103, (3′R, 4′S,5′R)-6″-chloro-4′-(2-chloro-3-fluoropyridin-4-yl)-N-{(3R,6S)-6-[(2-hydroxyethyl)carbamoyl]tetrahydro-2H-pyran-3-yl}-4,4-dimethyl-2″-oxo-1″,2″-dihydrodispiro[cyclohexane-1,2′-pyrrolidine-3′,3″-indole]-5′-carboxamide] | 1 to 50
10 | CN(C)C(=O)[C@@H]1CC[C@@H](NC(=O)[C@@H]2NC3(CCC(C)(C)CC3)[C@@]3(C(=O)Nc4nc(Cl)ccc43)[C@H]2c2ccnc(Cl)c2F)CO1 [Example 104, (3′R, 4′S,5′R)-6″-chloro-4′-(2-chloro-3-fluoropyridin-4-yl)-N-[(3R,6S)-6-(dimethylcarbamoyl)tetrahydro-2H-pyran-3-yl]-4,4-dimethyl-2″-oxo-1″,2″-dihydrodispiro[cyclohexane-1,2′-pyrrolidine-3′,3″-pyrrolo[2,3-b]pyridine]-5′-carboxamide] | 1 to 50
11 | C[C@H]1O[C@H](CO)CC[C@H]1NC(=O)[C@@H]1NC2(CCC(C)(C)CC2)[C@@]2(C(=O)Nc3cc(Cl)ccc32)[C@H]1c1ccnc(Cl)c1F [Example 105, (3′R, 4′S,5′R)-6″-chloro-4′-(2-chloro-3-fluoropyridin-4-yl)-N-[(2R,3R,6S)-6-(hydroxymethyl)-2-methyltetrahydro-2H-pyran-3-yl]-4,4-dimethyl-2″-oxo-1″,2″-dihydrodispiro[cyclohexane-1,2′-pyrrolidine-3′,3″-indole]-5′-carboxamide] | 1 to 50
12 | CC1(C)CCC2(CC1)N[C@@H](C(=O)N[C@@H]1CC[C@@H](C(=O)N3CCC3)OC1)[C@H](c1ccnc(Cl)c1F)[C@]21C(=O)Nc2cc(Cl)ccc21 [Example 106, (3′R, 4+S,5′R)—N-[(3R,6S)-6-(azetidin-1-ylcarbonyl)tetrahydro-2H-pyran-3-yl]-6″-chloro-4′-(2-chloro-3-fluoropyridin-4-yl)-4,4-dimethyl-2″-oxo-1″,2″-dihydrodispiro[cyclohexane-1,2′-pyrrolidine-3′,3″-indole]-5H-carboxamide] | 1 to 50
13 | CCNC(=O)[C@H]1C[C@H](NC(=O)[C@@H]2NC3(CCC(C)(C)CC3)[C@@]3(C(=O)Nc4cc(Cl)ccc43)[C@H]2c2ccnc(Cl)c2F)C1 [Example 118, (3′R,4′S,5′R)-6″-chloro-4′-(2-chloro-3-fluoropyridin-4-yl)-N-[trans-3-(ethylcarbamoyl)cyclobutyl]-4,4-dimethyl-2″-oxo-1″,2″-dihydrodispiro[cyclohexane-1,2′-pyrrolidine-3′,3″-indole]-5′-carboxamide] | 1 to 50
14 | CC1(C)CCC2(CC1)N[C@@H](C(=O)N[C@H]1C[C@H](CO)C1)[C@H](c1ccnc(Cl)c1F)[C@]21C(=O)Nc2cc(Cl)ccc21 [Example 119, (3′R,4′S,5′R)-6″-chloro-4′-(2-chloro-3-fluoropyridin-4-yl)-N-[trans-3-(hydroxymethyl)cyclobutyl]-4,4-dimethyl-2″-oxo-1″,2″-dihydrodispiro[cyclohexane-1,2′-pyrrolidine-3′,3″-indole]-5′-carboxamide] | 1 to 50
15 | CC1(C)CCC2(CC1)N[C@@H](C(=O)N[C@H]1C[C@H](C(=O)NC3CCOCC3)C1)[C@H](c1ccnc(Cl)c1F)[C@]21C(=O)Nc2cc(Cl)ccc21 [Example 120, (3′R, 4′S,5′R)-6″-chloro-4′-(2-chloro-3-fluoropyridin-4-yl)-4,4-dimethyl-2″-oxo-N-[trans-3-(tetrahydro-2H-pyran-4-ylcarbamoyl)cyclobutyl]-1″,2″-dihydrodispiro[cyclohexane-1,2′-pyrrolidine-3′,3″-indole]-5′-carboxamide] | 1 to 50
16 | NC(=O)[C@@H]1CC[C@@H](NC(=O)[C@@H]2NC3(CC(CF)(CF)C3)[C@@]3(C(=O)Nc4cc(Cl)ccc43)[C@H]2c2cccc(Cl)c2F)CO1 [Example 122, (3′R, 4′S,5′R)—N-[(3R, 6S)-6-carbamoyltetrahydro-2H-pyran-3-yl]-6″-chloro-4′-(3-chloro-2-fluorophenyl)-3,3-bis(fluoromethyl)-2″-oxo-1″,2″-dihydrodispiro[cyclobutane-1,2-pyrrolidine-3′,3″-indole]-5′-carboxamide] | 1 to 50
17 | O=C(N[C@H]1CC[C@H](c2nnco2)CC1)[C@@H]1NC2(CC(CF)(CF)C2)[C@@]2(C(=O)Nc3cc(Cl)ccc32)[C@H]1c1cccc(Cl)c1F [Example 123, (3′R, 4″S,5′R)-6′-chloro-4′-(3-chloro-2-fluorophenyl)-3,3-bis(fluoromethyl)-N-[trans-4-(1,3,4-oxadiazol-2-yl)cyclohexyl]-2″-oxo-1″,2″-dihydrodispiro[cyclobutane-1,2′-pyrrolidine-3′,3″-indole]-5′-carboxamide] | 50 to 100
18 | CN(C)C(=O)[C@@H]1CC[C@@H](NC(=O)[C@@H]2NC3(CC(CF)(CF)C3)[C@@]3(C(=O)Nc4cc(Cl)ccc43)[C@H]2c2cccc(Cl)c2F)CO1 [Example 124, (3′R, 4′S,5′R)-6″-chloro-4′-(3-chloro-2-fluorophenyl)-N-[(3R,6S)-6-(dimethylcarbamoyl)tetrahydro-2H-pyran-3-yl]-3,3-bis(fluoromethyl)-2″-oxo-1″,2″-dihydrodispiro[cyclobutane-1,2′-pyrrolidine-3′,3″-indole]-5′-carboxamide] | 1 to 50
